The target of the assay is purified porcine DP IV (Sus scrofa, UniProt P22411). Kind of assay: Determination of IC50 values, DP IV. The class given is biochemical. The settings on record: Gly-Pro-pNA 0.4 mM, HEPES pH 7.6, 30° C. On the procedure:
100 μl inhibitor stock solution were mixed with 100 μl buffer (HEPES pH7.6) and 50 μl substrate (Gly-Pro-pNA, final concentration 0.4 mM) and preincubated at 30° C. Reaction was started by addition of 20 μl purified porcine DP IV. Formation of the product pNA was measured at 405 nm over 10 min using the HTS 7000Plus plate reader (Perkin Elmer) and slopes were calculated. The final inhibitor concentrations ranged between 1 mM and 30 nM. For calculation of IC50 GraFit 4.0.13 (Erithacus Software) was used.

Sequence of purified porcine DP IV (P22411 whole entry): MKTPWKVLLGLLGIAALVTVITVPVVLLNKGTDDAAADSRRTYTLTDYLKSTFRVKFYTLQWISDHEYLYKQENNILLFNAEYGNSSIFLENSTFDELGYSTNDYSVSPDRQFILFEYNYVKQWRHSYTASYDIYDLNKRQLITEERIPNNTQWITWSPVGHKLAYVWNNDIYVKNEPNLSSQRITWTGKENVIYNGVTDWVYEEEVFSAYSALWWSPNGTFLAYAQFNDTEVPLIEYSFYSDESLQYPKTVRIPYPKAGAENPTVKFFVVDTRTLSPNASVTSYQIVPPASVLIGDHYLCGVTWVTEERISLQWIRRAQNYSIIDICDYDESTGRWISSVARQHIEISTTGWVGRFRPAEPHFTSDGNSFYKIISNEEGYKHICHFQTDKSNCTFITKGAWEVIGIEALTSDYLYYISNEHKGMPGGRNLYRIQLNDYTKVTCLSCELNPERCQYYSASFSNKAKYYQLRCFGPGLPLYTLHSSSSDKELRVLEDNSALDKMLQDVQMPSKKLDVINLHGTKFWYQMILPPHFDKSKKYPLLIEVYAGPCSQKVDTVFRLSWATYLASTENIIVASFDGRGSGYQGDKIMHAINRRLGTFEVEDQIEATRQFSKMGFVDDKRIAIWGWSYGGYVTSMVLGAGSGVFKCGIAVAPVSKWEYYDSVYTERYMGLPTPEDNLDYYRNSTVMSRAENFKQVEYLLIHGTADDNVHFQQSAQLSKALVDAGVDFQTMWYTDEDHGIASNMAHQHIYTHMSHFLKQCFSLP

In turn, `NC(=O)CCC(N)C(=O)N1CCSC1` (stereo not shown) [Gln-Thia, glutaminyl thiazolidine] displayed an IC50 of 5.27 µM.

Values taken from patent publication US7368421B2, “Use of dipeptidyl peptidase IV inhibitors in the treatment of multiple sclerosis” (Probiodrug AG, priority 2001, dated 2008).
